Literature values, collected in patent publication US20150141518A1, “WATER-MISCIBLE STABLE SOLUTION COMPOSITION FOR PHARMACEUTICALLY ACTIVE INGREDIENTS THAT ARE POORLY SOLUBLE IN WATER AND SUSCEPTIBLE TO CHEMICAL DEGRADATION” (Emphascience, Inc., priority 2013, published 2015).

Experiments:
[1] = room temperature
[2] = accelerated at extremes of pH and higher temperatures

solubility of paracetamol in water [1]: ca. 13 mg/mL
overall rate of chemical degradation of paracetamol in solution [2]: first order kinetics
SMILES: CC(=O)Nc1ccc(O)cc1 [paracetamol]
